Experimental data as given in PubChem BioAssay AID2060906 (Molecular Pharmacology Branch, DTP, NCI, 2025).

System: 485176-168-R4-J1-PDC complex spheroid growth
Experiment: Anticancer human tumor 485176-168-R4-J1-PDC patient-derived pancreatic adenocarcinoma cell line growth inhibition [RAS]
Settings: for viability, T/C: stronger effect = lower value
Method in brief: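 Agents were tested in combination matrices in half-log decrements from a top concentration at or near clinical Cmax (10 microM if undetermined). Targets were multi-cell spheroids of tumour lines plus HUVEC and MSC stromal cells.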
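Note: spheroids exposed to compounds for seven days before readout.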
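Throughout, for viability, T/C: luminescence viability expressed relative to DMSO vehicle wells set as 100%.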

SMILES: CC1(C)CCC(Nc2ncc(C(F)(F)F)c(-c3c[nH]c4c(P(C)(C)=O)c(C#N)ccc34)n2)CN1 (centres undefined) + CCn1c(-c2cccnc2C(C)OC)c2c3cc(ccc31)N1CCOC(CC(NC(=O)C(C(C)C)N(C)C(=O)C3(F)CCN(C(=O)C#CC(C)(C)N(C)C)CC3)C(=O)N3CCCC(N3)C(=O)OCC(C)(C)C2)C1
- IC50 (curve of first compound, second compound 0.000949 µM): > 300 nM
- IC50 (curve of first compound, second compound 0.003 µM): > 300 nM
- IC50 (curve of first compound, second compound 0.00949 µM): 66.8 nM
- IC50 (curve of first compound, second compound 0.03 µM): 26.5 nM
- IC50 (curve of first compound, second compound 0.0949 µM): 20.8 nM
- IC50 (curve of first compound, second compound 0.3 µM): 13.2 nM
- viability, T/C (second compound 0.000949 µM, first compound 0.000949 µM): 91.9%
- viability, T/C (second compound 0.000949 µM, first compound 0.003 µM): 93.3%
- viability, T/C (second compound 0.000949 µM, first compound 0.00949 µM): 86.8%
- viability, T/C (second compound 0.000949 µM, first compound 0.03 µM): 59.5%
- viability, T/C (second compound 0.000949 µM, first compound 0.0949 µM): 52.8%
- viability, T/C (second compound 0.000949 µM, first compound 0.3 µM): 54.1%
- viability, T/C (second compound 0.003 µM, first compound 0.000949 µM): 99.1%
- viability, T/C (second compound 0.003 µM, first compound 0.003 µM): 90.7%
- viability, T/C (second compound 0.003 µM, first compound 0.00949 µM): 87.5%
- viability, T/C (second compound 0.003 µM, first compound 0.03 µM): 58.3%
- viability, T/C (second compound 0.003 µM, first compound 0.0949 µM): 54.5%
- viability, T/C (second compound 0.003 µM, first compound 0.3 µM): 51.7%
- viability, T/C (second compound 0.00949 µM, first compound 0.000949 µM): 97.6%
- viability, T/C (second compound 0.00949 µM, first compound 0.003 µM): 91%
- viability, T/C (second compound 0.00949 µM, first compound 0.00949 µM): 82.2%
- viability, T/C (second compound 0.00949 µM, first compound 0.03 µM): 54.1%
- viability, T/C (second compound 0.00949 µM, first compound 0.0949 µM): 50.5%
- viability, T/C (second compound 0.00949 µM, first compound 0.3 µM): 44.9%
- viability, T/C (second compound 0.03 µM, first compound 0.000949 µM): 89.4%
- viability, T/C (second compound 0.03 µM, first compound 0.003 µM): 112%
- viability, T/C (second compound 0.03 µM, first compound 0.00949 µM): 73.5%
- viability, T/C (second compound 0.03 µM, first compound 0.03 µM): 54.5%
- viability, T/C (second compound 0.03 µM, first compound 0.0949 µM): 39%
- viability, T/C (second compound 0.03 µM, first compound 0.3 µM): 47.9%
- viability, T/C (second compound 0.0949 µM, first compound 0.000949 µM): 77.9%
- viability, T/C (second compound 0.0949 µM, first compound 0.003 µM): 87.1%
- viability, T/C (second compound 0.0949 µM, first compound 0.00949 µM): 67.7%
- viability, T/C (second compound 0.0949 µM, first compound 0.03 µM): 42.2%
- viability, T/C (second compound 0.0949 µM, first compound 0.0949 µM): 34.6%
- viability, T/C (second compound 0.0949 µM, first compound 0.3 µM): 34.1%
- viability, T/C (second compound 0.3 µM, first compound 0.000949 µM): 81.9%
- viability, T/C (second compound 0.3 µM, first compound 0.003 µM): 69.1%
- viability, T/C (second compound 0.3 µM, first compound 0.00949 µM): 58.7%
- viability, T/C (second compound 0.3 µM, first compound 0.03 µM): 34%
- viability, T/C (second compound 0.3 µM, first compound 0.0949 µM): 26.8%
- viability, T/C (second compound 0.3 µM, first compound 0.3 µM): 30.5%

SMILES: CC(C)NCC(C(=O)N1CCN(c2ncnc3c2C(C)CC3O)CC1)c1ccc(Cl)cc1 (centres undefined)
- viability, T/C (compound 0.0316 µM): 96.6% [middle of 4 runs]
- viability, T/C (compound 0.1 µM): 93.9% [middle of 4 runs]
- viability, T/C (compound 0.316 µM): 80.4% [middle of 4 runs]
- viability, T/C (compound 1 µM): 58.8% [middle of 4 runs]
- viability, T/C (compound 3.16 µM): 47.7% [middle of 4 runs]
- viability, T/C (compound 10 µM): 35% [middle of 4 runs]
- IC50 (curve of compound): 2.32 µM [middle of 4 runs]
